From BindingDB's records for doi:10.1021/ml2001196 (2011)

What was measured:
[1] = Antagonist activity at CRTH2 receptor in human whole blood assessed as inhibition of PGD2-induced eosinophil chemotaxis
[2] = Antagonist activity at CRTH2 receptor in human whole blood assessed as inhibition of PGD2-induced eosinophil shape change pretreated for 20 mins measured after 1 hr by flow cytometric analysis

| IC50 [1] [nM] | IC50 [2] [nM] | Structure (SMILES) |
| --- | --- | --- |
| 47 |  | CN1C(=O)N(Cc2cc(Cl)ccc2F)C(=O)[C@]12C(=O)N(CC(=O)O)c1ccc(Cl)cc12 |
| 7.4 | 69 | O=C(O)CN1C(=O)[C@@]2(NC(=O)N(Cc3cc(Cl)ccc3F)C2=O)c2cc(Cl)ccc21 |
|  | 3940 | CN1C(=O)N(Cc2csc(-c3ccccc3)n2)C(=O)C12C(=O)N(CC(=O)O)c1ccc(Cl)cc12 (stereo unspecified) |
| 62 | 1800 | O=C(O)CN1C(=O)[C@@]2(CC(=O)N(Cc3cc(Cl)ccc3F)C2)c2cc(Cl)ccc21 [2-[(3S)-5-chloro-1'-[(5-chloro-2-fluorophenyl)methyl]-1,2-dihydrospiro[indole-3,3'-pyrrolidine]-2,5'-dione]acetic acid] |
